Columns and labels:
Guinea pig cough = Guinea pig cough (Antitussive); type: in vivo; settings: Example 8 250 mg/kg equivalent to 150 mg/kg codeine
[1] = LD50 (acute toxicity, i.g.); settings: in vivo, po, species not given
[2] = antiphlogistic (anti-inflammatory) activity; type: in vivo
Shay Rat = experiment: antisecretory activity (Shay Rat); type: in vivo; settings: i.g.
analgesic activity = type: in vivo; settings: dose not given

SMILES | Activity: Guinea pig cough (Antitussive), equivalent dose (Guinea pig cough) [mg/kg] | LD50 [1] [mg/kg] | further results
CS1(=O)=NC(=NC(=O)c2ccccc2O)c2ccccc21 (stereo not shown) [Example 8, 3-(Salicyloylimino)-1-methyl-3H-1,2-benzisothiazole-1-oxide] | 250 | 1600 | 
CCOC(=O)N=C1N=S(=O)(c2ccccc2)c2ccccc21 (stereo not shown) [Example 12, 3-(Ethoxycarbonylimino)-1-phenyl-3H-1,2-benzisothiazole-1-oxide] |  | 1600 | Activity: antiphlogistic (dose) ([2]; dose at which antiphlogistic activity is stated, route and species not given): 250 mg/kg
CC(C)C(=O)N=C1N=S(=O)(c2ccccc2)c2ccccc21 (stereo not shown) [Example 7, 3-(Isobutyrylimino)-1-phenyl-3H-1,2-benzisothiazole-1-oxide] |  | 600 | Activity: antisecretory (dose) (Shay Rat): 100 mg/kg
CCC(=O)N=C1N=S(=O)(c2ccccc2)c2ccccc21 (stereo not shown) [Example 6, 3-(Propionylimino)-1-phenyl-3H-1,2-benzisothiazole-1-oxide] |  | 1600 | Activity: antiphlogistic / anti-inflammatory (in words) ([2]; dose not given): Antiphlogistic; Activity: analgesic (in words) (analgesic activity): analgesic
COc1ccc2c3c1O[C@H]1[C@@H](O)C=C[C@H]4[C@@H](C2)N(C)CC[C@@]341 [codeine, reference compound] | 150 |  | 
